From article PMC10426190 (Breast Cancer Research : BCR, 2023)

Test system: E2-induced (ER target) genes in MCF7
Assay: Gene expression analysis by RNA-sequencing in MCF7 with E2 stimulation
Format: cell-based, human
Conditions: 24 h
Description: MCF7 were cultured in hormone deprivation media (with 10% charcoal-stripped FBS) for at least 3 days before assay. Trypsinized cells were seeded in a 12-well plate, stimulated with 1 nM β-estradiol (E2), and treated with/without 1 μM compounds for 24 h. Total RNA was extracted using the TRIzol reagent according to the manufacturer’s protocol. RNA purity and quantification were evaluated using the NanoDrop 2000 spectrophotometer (Thermo Scientific, USA). RNA integrity was assessed using the Agilent 2100 Bioanalyzer (Agilent Technologies, Santa Clara, CA, USA). Then the libraries were constructed using TruSeq Stranded mRNA LT Sample Prep Kit (Illumina, San Diego, CA, USA) according to the manufacturer’s instructions. The transcriptome sequencing and analysis were conducted by OE Biotech Co., Ltd. (Shanghai, China). The libraries were sequenced on an Illumina HiSeq X Ten platform and 150 bp paired-end reads were generated. […] Raw data (raw reads) of FASTq format were firstly processed using Trimmomatic and the low-quality reads were removed to obtain the clean reads. […] The clean reads were mapped to the human genome (GRCh38) using HISAT2 [27]. FPKM [28] of each gene was calculated using Cufflinks, and the read counts of each gene were obtained by HTSeqcount. Differential expression analysis was performed using the DESeq (2012) R package.
MCF7 with hormone-deprived pre-treatment were administrated ER ligands or not present with 1 nM E2 stimulation for 24 h incubation in a 12-well plate. Total mRNA was isolated from treated cells and sequenced on an Illumina HiSeq X Ten platform. FPKM of each gene was calculated using Cufflinks and Differential expression genes analysis by using the DESeq (2012) R package. […] T47D EFM-19 and HCC1500 cells were grown in RPMI media supplemented with 10% charcoal-stripped FBS for 14 days and then treated with ER antagonist (1 μM) or DMSO in the presence E2 (1nM) stimulation for 24 h before RNA isolation and gene expression analysis as described in methods. […] The uteruses were harvested 24 h after the final doses and stained by toluidine blue. Endometrial height was assessed from the basement membrane to the luminal border (scale bar in green lines: 200 μm), Arrows indicate the uterine epithelium (e).

## CC/C(=C(\c1ccc(O)cc1)c1ccc(OCCN(C)C)cc1)c1ccccc1 [4-OH-tamoxifen]
MCF7, 1 nM E2 + 1 μM compound
  percentage of E2-induced genes suppressed, Relative to 1 nM E2 Down%: 59.1%
MCF7, 1 nM E2 + 1 μM compound, foldchange > twofold
  percentage of genes upregulated, Relative to 1 nM E2 Up%: 5.8%
MCF7, 1 nM E2 ± 1 μM compound
  ACTG2 expression: 2.33 FPKM
  ADCY1 expression: 19.17 FPKM
  AGR3 expression: 25.86 FPKM
  AMZ1 expression: 3.21 FPKM
  ANLN expression: 22.77 FPKM
  ARHGAP36 expression: 1.42 FPKM
  ASCL1 expression: 2.50 FPKM
  ASF1B expression: 33.57 FPKM
  ASMTL-2 expression: 3.33 FPKM
  ATAD2 expression: 29.15 FPKM
  ATRNL1 expression: 0.29 FPKM
  AURKB expression: 18.53 FPKM
  BIRC5 expression: 26.74 FPKM
  BLM expression: 3.14 FPKM
  BMPER expression: 0.18 FPKM
  BRCA1 expression: 3.58 FPKM
  BRCA2 expression: 2.51 FPKM
  BRIP1 expression: 22.65 FPKM
  BUB1B expression: 9.15 FPKM
  C1orf226 expression: 5.19 FPKM
  C5AR2 expression: 2.33 FPKM
  CA2 expression: 157.09 FPKM
  CA12 expression: 46.02 FPKM
  CALCR expression: 4.03 FPKM
  CAV1 expression: 5.56 FPKM
  CCN5 expression: 29.67 FPKM
  CCNA2 expression: 17.16 FPKM
  CCNE2 expression: 7.22 FPKM
  CD99-2 expression: 0.97 FPKM
  CDC6 expression: 6.08 FPKM
  CDC25A expression: 2.63 FPKM
  CDC45 expression: 5.79 FPKM
  CDCA3 expression: 6.21 FPKM
  CDCA4 expression: 15.28 FPKM
  CDCA5 expression: 13.04 FPKM
  CDCA7 expression: 2.77 FPKM
  CDH26 expression: 0.69 FPKM
  CDK1 expression: 15.34 FPKM
  CDT1 expression: 21.06 FPKM
  CENPI expression: 3.21 FPKM
  CENPU expression: 5.41 FPKM
  CHAF1B expression: 2.31 FPKM
  CHEK1 expression: 2.63 FPKM
  CKS1B expression: 49.15 FPKM
  CLSPN expression: 1.96 FPKM
  COL12A1 expression: 3.75 FPKM
  CXCL12 expression: 3.86 FPKM
  DDIAS expression: 4.48 FPKM
  DHRSX-2 expression: 1.54 FPKM
  DKK1 expression: 41.67 FPKM
  DNA2 expression: 3.39 FPKM
  DPYSL5 expression: 0.63 FPKM
  DSCC1 expression: 4.49 FPKM
  DTL expression: 2.21 FPKM
  E2F1 expression: 8.56 FPKM
  E2F2 expression: 1.96 FPKM
  E2F7 expression: 3.12 FPKM
  E2F8 expression: 4.23 FPKM
  ELOVL2 expression: 7.72 FPKM
  EME1 expression: 4.92 FPKM
  ERCC6L expression: 1.82 FPKM
  ESCO2 expression: 2.98 FPKM
  ESPL1 expression: 7.94 FPKM
  EXO1 expression: 3.27 FPKM
  FAM20A expression: 2.46 FPKM
  FAM111B expression: 4.32 FPKM
  FANCA expression: 10.70 FPKM
  FANCD2 expression: 6.23 FPKM
  FANCI expression: 20.35 FPKM
  FEN1 expression: 31.76 FPKM
  FIGNL1 expression: 2.46 FPKM
  FKBP4 expression: 79.90 FPKM
  GATA4 expression: 0.08 FPKM
  GFRA1 expression: 84.37 FPKM
  GINS1 expression: 11.19 FPKM
  GINS2 expression: 12.84 FPKM
  GJA1 expression: 0.31 FPKM
  GLA expression: 41.63 FPKM
  GP1BB expression: 0.99 FPKM
  GPR68 expression: 0.38 FPKM
  GPRIN1 expression: 4.22 FPKM
  GREB1 expression: 4.76 FPKM
  H2AX expression: 94.16 FPKM
  HBB expression: 2.54 FPKM
  HELLS expression: 3.37 FPKM
  HEY2 expression: 1.93 FPKM
  HMGB2 expression: 125.20 FPKM
  IGFBP4 expression: 56.87 FPKM
  IGSF1 expression: 3.37 FPKM
  ITGA2B expression: 0.44 FPKM
  KIF11 expression: 13.08 FPKM
